{
  "source": "ChEMBL document CHEMBL3580584",
  "about": "“Antibacterial Balsacones J-M, Hydroxycinnamoylated Dihydrochalcones from Populus balsamifera Buds” (J Nat Prod, 2015)",
  "system": "Staphylococcus aureus",
  "experiment": "Antibacterial activity against Staphylococcus aureus ATCC 25923 assessed as growth inhibition after 24 hrs by microdilution method",
  "format": "functional, organism-based",
  "data": [
    {"compound": "O=C(N[C@H](CO)[C@H](O)c1ccc([N+](=O)[O-])cc1)C(Cl)Cl", "note": "[CHLORAMPHENICOL]", "values": [
      {"measurement": "IC50", "setting": "Staphylococcus aureus, ATCC 25923, 24 h", "result": 430, "unit": "nM"}
    ]},
    {"compound": "GENTAMICIN", "values": [
      {"measurement": "IC50", "result": 10, "unit": "nM"}
    ]}
  ]
}
